Structures can show the parent of a compound that is named as a salt.
Target: T1, Recombinant full length human OGA enzyme (Homo sapiens, UniProt O60502)
T1 construct: Recombinant full length human OGA enzyme was purchased from Origene; purchased Origene
T1 sequence (O60502 1-916): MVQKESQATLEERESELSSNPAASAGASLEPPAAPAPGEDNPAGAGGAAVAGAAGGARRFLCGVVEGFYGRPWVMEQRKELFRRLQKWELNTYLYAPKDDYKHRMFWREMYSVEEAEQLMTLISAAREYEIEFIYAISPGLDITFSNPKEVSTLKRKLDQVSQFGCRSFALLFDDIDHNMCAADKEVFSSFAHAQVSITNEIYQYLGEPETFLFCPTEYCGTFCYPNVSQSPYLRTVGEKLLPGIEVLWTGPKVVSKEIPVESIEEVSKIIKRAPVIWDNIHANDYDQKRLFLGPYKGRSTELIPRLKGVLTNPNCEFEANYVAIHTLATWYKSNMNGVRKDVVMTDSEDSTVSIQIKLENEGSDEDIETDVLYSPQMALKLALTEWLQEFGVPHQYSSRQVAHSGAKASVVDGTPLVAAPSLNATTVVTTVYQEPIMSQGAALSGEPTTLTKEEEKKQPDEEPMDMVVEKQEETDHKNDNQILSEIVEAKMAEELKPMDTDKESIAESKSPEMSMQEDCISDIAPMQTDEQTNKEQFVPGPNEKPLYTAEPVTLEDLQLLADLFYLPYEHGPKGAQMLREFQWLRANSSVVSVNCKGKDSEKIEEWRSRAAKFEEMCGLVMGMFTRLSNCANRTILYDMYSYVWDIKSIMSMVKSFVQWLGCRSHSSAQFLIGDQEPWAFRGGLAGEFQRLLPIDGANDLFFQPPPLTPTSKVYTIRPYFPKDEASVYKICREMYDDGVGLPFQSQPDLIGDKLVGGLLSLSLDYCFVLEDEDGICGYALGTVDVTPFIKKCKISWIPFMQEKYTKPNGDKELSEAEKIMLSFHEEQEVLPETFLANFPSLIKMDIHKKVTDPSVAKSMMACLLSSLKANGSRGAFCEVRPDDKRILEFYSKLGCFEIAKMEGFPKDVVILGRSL
Test: OGA Enzyme Inhibition Biochemical Assay
Conditions: 1 nM OGA, 100 μM 4-MUGlcNAc (Km), pH 6.4, 90 minutes at room temperature; 10-point dose-response starting from 20 μM
Protocol: OGA Enzyme Inhibition Biochemical Assay
Recombinant full length human OGA enzyme was purchased from Origene. 4-MUGlCNAc substrate was purchased from Sigma. All other reagents were purchased from Sigma or Fisher. Assay buffer consists of the McIlvaine buffer system, pH 6.4 (0.2M Na2HPO4 mixed with 0.1M citric acid) and 0.01% BSA. Reactions consist of 1 nM OGA, 100 μM 4-MUGlcNAc (Km), and compound in a final volume of 10 μl. Reactions were incubated for 90 minutes at room temperature and quenched with 40 μl of 3M glycine, pH 10 and read on a Perkin Elmer Envision plate reader (Ex: 355 nm/Em: 460 nm). Compounds were tested with a 10-point dose-response starting from 20 μM with a 4-fold dilution. Data was fit using GraphPad Prism using a 4-paramter fit with variable slope.

Row | Compound | IC50 [nM]
1 | COc1cc(C[C@@H]2CN(Cc3cnc(NC(C)=O)s3)[C@@H](C)CN2C)ccn1 [Example 2-18] | 4.9
2 | CC(=O)Nc1ncc(CN2CCOCC(Cc3cc(C)nc(C)c3)C2)s1 (single isomer, unassigned) [Example 1-43 Peak 2] | 38
3 | COc1cc(CC2CN(Cc3cnc(NC(C)=O)s3)CCN2C)ccn1 (single isomer, unassigned) [Example 4-12 Peak 2] | > 20000
4 | CC(=O)Nc1ncc(CN2C[C@@H](Cc3ncc(F)cn3)OC[C@@H]2C)s1 [Example 1-26] | 5.1
5 | CCN1C[C@H](C)N(Cc2cnc(NC(C)=O)s2)C[C@H]1Cc1ccnc(C)c1 [Example 2-3, N-(5-(((2S,5R)-4-ethyl-2-methyl-5-((2-methylpyridin-4-yl)methyl)piperazin-1-yl)methyl)thiazol-2-yl)acetamide] | 26
6 | CC(=O)Nc1ncc(CN2CCNC(Cc3ncc(F)cn3)C2)s1 (single isomer, unassigned) [Example 2-20 Peak 2] | > 20000
7 | COc1cc(C[C@@H]2CN(Cc3cnc(NC(C)=O)s3)[C@@H](C)CO2)ccn1 [Example 1-30, N-(5-(((2R,5S)-2-((2-methoxypyridin-4-yl)methyl)-5-methylmorpholino)methyl)thiazol-2-yl)acetamide] | 17000
8 | CC(=O)Nc1ncc(CN2CCN(C)[C@@H](Cc3cc(C)nc(C)c3)C2)s1 [Example 4-4, (S)—N-(5-((3-((2,6-dimethylpyridin-4-yl)methyl)-4-methylpiperazin-1-yl)methyl)thiazol-2-yl)acetamide] | 200
9 | COc1cc(CC2CN(Cc3cnc(NC(C)=O)s3)CCN2)ccn1 (single isomer, unassigned) [Example 2-22 Peak 1] | 18000
10 | CC(=O)Nc1ncc(CN2CCO[C@H](Cc3ccnc(C(F)(F)F)n3)C2)s1 [Example 1-9] | 1500
11 | CC(=O)Nc1ncc(CN2CCO[C@H](Cc3cc(C)nc(C)c3)C2)s1 [Example 1-21, (R)—N-(5-((2-((2,6-dimethylpyridin-4-yl)methyl)morpholino)methyl)thiazol-2-yl)acetamide] | 38
12 | CC(=O)Nc1ncc(CN2CCOCC(Cc3cc(C)nc(C)c3)C2)s1 (racemic) [Example 1-42, N-(5-((6-((2,6-dimethylpyridin-4-yl)methyl)-1,4-oxazepan-4-yl)methyl)thiazol-2-yl)acetamide] | 19
13 | CC(=O)Nc1ncc(CN2C[C@@H](Cc3ccnc(C)c3)OC[C@@H]2C)s1 [Example 1-32, N-(5-(((2R,5S)-5-methyl-2-((2-methylpyridin-4-yl)methyl)morpholino)methyl)thiazol-2-yl)acetamide] | 1.4
14 | COc1cc(CC2CN(Cc3cnc(NC(C)=O)s3)CCCO2)ccn1 (racemic) [Example 1-40, N-(5-((2-((2-methoxypyridin-4-yl)methyl)-1,4-oxazepan-4-yl)methyl)thiazol-2-yl)acetamide] | 99
15 | CC(=O)Nc1ncc(CN2C[C@@H](Cc3ncc(F)cn3)OC[C@H]2C)s1 [Example 1-27] | 6600
16 | CC(=O)Nc1ncc(CN2CCNC(Cc3ccc(C)nc3)C2)s1 (single isomer, unassigned) [Example 4-14 Peak 2] | 4400
17 | COc1cc(CC2COCCN(Cc3cnc(NC(C)=O)s3)C2)ccn1 (racemic) [Example 1-46, N-(5-((6-((2-methoxypyridin-4-yl)methyl)-1,4-oxazepan-4-yl)methyl)thiazol-2-yl)acetamide] | 42
18 | CC(=O)Nc1ncc(CN2C[C@@H](Cc3ncc(F)cn3)N(C(C)=O)C[C@@H]2C)s1 [Example 2-7, N-(5-(((2S,5R)-4-acetyl-5-((5-fluoropyrimidin-2-yl)methyl)-2-methylpiperazin-1-yl)methyl)thiazol-2-yl)acetamide] | 9600
19 | CC(=O)Nc1ncc(CN2C[C@@H](COc3cc(C)nc(C)c3)N(C(C)=O)C[C@@H]2C)s1 [Example 3-3] | 11000

Row | Compound | IC50 [nM]
20 | CC(=O)Nc1ncc(CN2CCO[C@H](Cc3ncc(F)cn3)C2)s1 [Example 1-1, (R)—N-(5-((2-((5-fluoropyrimidin-2-yl)methyl)morpholino)methyl)thiazol-2-yl)acetamide] | 16
21 | CC(=O)Nc1ncc(CN2CCO[C@@H](Cc3ncc(F)cn3)C2)s1 [Example 1-2, (S)—N-(5-((2-((5-fluoropyrimidin-2-yl)methyl)morpholino)methyl)thiazol-2-yl)acetamide] | 4400
22 | CC(=O)Nc1nc(F)c(CN2CCO[C@H](Cc3ccc(C)nc3)C2)s1 [Example 1-48, (R)—N-(4-fluoro-5-((2-((6-methylpyridin-3-yl)methyl)morpholino)methyl)thiazol-2-yl)acetamide] | 140
23 | COc1cc(C[C@H]2CN(Cc3cnc(NC(C)=O)s3)CCO2)ccn1 [Example 1-4, (S)—N-(5-((2-((2-methoxypyridin-4-yl)methyl)morpholino)methyl)thiazol-2-yl)acetamide] | 11000
24 | CC(=O)Nc1ncc(CN2CCN[C@H](Cc3cc(C)nc(C)c3)C2)s1 [Example 4-1, (R)—N-(5-((3-((2,6-dimethylpyridin-4-yl)methyl)piperazin-1-yl)methyl)thiazol-2-yl)acetamide hydrochloride] | 7000
25 | CC(=O)Nc1ncc(CN2C[C@@H](Cc3ncc(F)cn3)O[C@@H](C)C2)s1 (racemic) [Example 1-34, N-(5-(((cis)-2-((5-fluoropyrimidin-2-yl)methyl)-6-methylmorpholino)methyl)thiazol-2-yl)acetamide] | 680
26 | CC(=O)Nc1ncc(CN2CCO[C@H](Cc3cc(C)c(F)cn3)C2)s1 [Example 1-18, (R)—N-(5-((2-((5-fluoro-4-methylpyridin-2-yl)methyl)morpholino)methyl)thiazol-2-yl)acetamide] | 200
27 | CC(=O)Nc1ncc(CN2C[C@@H](Cc3cc(C)nc(C)c3)N(C(C)=O)C[C@@H]2C)s1 [Example 2-15, N-(5-(((2S,5R)-4-acetyl-5-((2,6-dimethylpyridin-4-yl)methyl)-2-methylpiperazin-1-yl)methyl)thiazol-2-yl)acetamide] | 5900
28 | CC(=O)Nc1ncc(CN2CCOC(C(C)c3ncc(F)cn3)C2)s1 (single isomer, unassigned) [Example 1-25 Peak 1] | 5.3
29 | CC(=O)Nc1ncc(CN2CCOCC(Cc3cc(C)nc(C)c3)C2)s1 (single isomer, unassigned) [Example 1-43 Peak 1] | 19
30 | CC(=O)Nc1ncc(CN2CCN(C)CC(COc3ncc(F)cn3)C2)s1 (stereo not shown) [Example 3-5, N-(5-((6-(((5-fluoropyrimidin-2-yl)oxy)methyl)-4-methyl-1,4-diazepan-1-yl)methyl)thiazol-2-yl)acetamide] | > 20000
31 | CC(=O)Nc1ncc(CN2CCN(C)[C@H](Cc3ccc(C)nc3)C2)s1 [Example 4-15, (R)—N-(5-((4-methyl-3-((6-methylpyridin-3-yl)methyl)piperazin-1-yl)methyl)thiazol-2-yl)acetamide] | > 20000
32 | COc1cc(CC2CN(Cc3cnc(NC(C)=O)s3)CCN2C)ccn1 (single isomer, unassigned) [Example 4-12 Peak 1] | 950
33 | CC(=O)Nc1nc(F)c(CN2C[C@@H](Cc3ccc(C)nc3)OC[C@@H]2C)s1 [Example 1-49, N-(4-fluoro-5-(((2R,5S)-5-methyl-2-((6-methylpyridin-3 yl)methyl)morpholino)methyl)thiazol-2-yl)acetamide] | 170
34 | CC(=O)Nc1ncc(CN2C[C@@H](Cc3ccc(C)nc3)N(C)C[C@@H]2C)s1 [Example 2-11, N-(5-(((2S,5R)-2,4-dimethyl-5-((6-methylpyridin-3-yl)methyl)piperazin-1-yl)methyl)thiazol-2-yl)acetamide] | 45
35 | CC(=O)Nc1ncc(CN2CCCOC(Cc3ncc(F)cn3)C2)s1 (single isomer, unassigned) [Example 1-39 Peak 1] | 20
36 | CC(=O)Nc1ncc(CN2CCCOC(Cc3cc(C)nc(C)c3)C2)s1 (single isomer, unassigned) [Example 1-37 Peak 2] | 110
37 | COc1cc(CC2CN(Cc3cnc(NC(C)=O)s3)CCCO2)ccn1 (single isomer, unassigned) [Example 1-41 Peak 2] | 270

Reference: patent US12319679B2, “Morpholinyl, piperazinyl, oxazepanyl and diazepanyl O-glycoprotein-2-acetamido-2-deoxy-3-d-glucopyranosidase inhibitors” (BIOGEN MA INC., priority 2018, dated 2025)
